Experimental data taken from ChEMBL document CHEMBL3885881, “DrugMatrix”.

Species on record: Rattus norvegicus
Assay: DrugMatrix - Regimen: Daily Repeat
Format: toxicity, organism-based, Sprague-Dawley
Design: regimen Daily Repeat, gender Male, age 6-8 weeks
Settings: in vivo, po, route oral GAVAGE, vehicle 100 % WATER; for ABSOLUTE BASOPHIL / ABSOLUTE EOSINOPHIL / ABSOLUTE LYMPHOCYTE / ABSOLUTE MONOCYTE / ABSOLUTE SEGMENTED NEUTROPHIL / BASOPHIL / EOSINOPHIL / ERYTHROCYTE COUNT / HEMATOCRIT / HEMOGLOBIN / LEUKOCYTE COUNT / LYMPHOCYTE / MEAN CORPUSCULAR HEMOGLOBIN / MEAN CORPUSCULAR HEMOGLOBIN CONCENTRATION / MONOCYTE / NEUTROPHIL / NUCLEATED RED BLOOD CELLS / PLATELET COUNT: tissue Blood; for ALANINE AMINOTRANSFERASE / ALBUMIN / ALKALINE PHOSPHATASE / BLOOD UREA NITROGEN / CARBON DIOXIDE / CHLORIDE / CHOLESTEROL / CREATINE PHOSPHOKINASE / CREATININE / GLUCOSE / LACTATE DEHYDROGENASE / LIPASE / PHOSPHORUS / POTASSIUM / SODIUM / TOTAL BILIRUBIN / TOTAL PROTEIN / URIC ACID: tissue Plasma
[1] = 0 mg/kg, 72 h, dose level Control, time 3 day
[2] = 0 mg/kg, 120 h, dose level Control, time 5 day
[3] = 15 mg/kg, 72 h, dose level Low, time 3 day

Cc1ccc(NC(=O)c2ccc(CN3CCN(C)CC3)cc2)cc1Nc1nccc(-c2cccnc2)n1 [IMATINIB]
ABSOLUTE BASOPHIL [1]: 0 CELLS/uL
ABSOLUTE EOSINOPHIL [1]: 151.33 CELLS/uL
ABSOLUTE LYMPHOCYTE [1]: 10599.5 CELLS/uL
ABSOLUTE MONOCYTE [1]: 109.5 CELLS/uL
ABSOLUTE SEGMENTED NEUTROPHIL [1]: 1139.67 CELLS/uL
BASOPHIL [1]: 0%
EOSINOPHIL [1]: 0.83%
ERYTHROCYTE COUNT [1]: 5.54 x10E6/uL
HEMATOCRIT [1]: 35.35%
HEMOGLOBIN [1]: 13.22 G/DL
LEUKOCYTE COUNT [1]: 12 x10E3/uL
LYMPHOCYTE [1]: 89%
MEAN CORPUSCULAR HEMOGLOBIN [1]: 23.88 pg
MEAN CORPUSCULAR HEMOGLOBIN CONCENTRATION [1]: 37.4 G/DL
MONOCYTE [1]: 1%
NEUTROPHIL [1]: 9.17%
NUCLEATED RED BLOOD CELLS [1]: 0 /100WBC
PLATELET COUNT [1]: 1333.33 x10E3/uL
ALANINE AMINOTRANSFERASE [1]: 53.17 u/L
ALBUMIN [1]: 4.32 G/DL
ALKALINE PHOSPHATASE [1]: 404.33 u/L
BLOOD UREA NITROGEN [1]: 15.67 mg/dL
CARBON DIOXIDE [1]: 27.33 mmol/L
CHLORIDE [1]: 101.83 MEQ/L
CHOLESTEROL [1]: 68.67 mg/dL
CREATINE PHOSPHOKINASE [1]: 276.17 u/L
CREATININE [1]: 0.18 mg/dL
GLUCOSE [1]: 163.5 mg/dL
LACTATE DEHYDROGENASE [1]: 144.67 u/L
LIPASE [1]: 8.83 u/L
PHOSPHORUS [1]: 11.72 mg/dL
POTASSIUM [1]: 5.99 MEQ/L
SODIUM [1]: 143.57 MEQ/L
TOTAL BILIRUBIN [1]: 0.2 mg/dL
TOTAL PROTEIN [1]: 6.1 G/DL
URIC ACID [1]: 1.38 mg/dL
ABSOLUTE BASOPHIL [2]: 0 CELLS/uL
ABSOLUTE EOSINOPHIL [2]: 248.67 CELLS/uL
ABSOLUTE LYMPHOCYTE [2]: 12977.83 CELLS/uL
ABSOLUTE MONOCYTE [2]: 19.67 CELLS/uL
ABSOLUTE SEGMENTED NEUTROPHIL [2]: 1137.17 CELLS/uL
BASOPHIL [2]: 0%
EOSINOPHIL [2]: 1.67%
ERYTHROCYTE COUNT [2]: 5.82 x10E6/uL
HEMATOCRIT [2]: 36.35%
HEMOGLOBIN [2]: 13.58 G/DL
LEUKOCYTE COUNT [2]: 14.38 x10E3/uL
LYMPHOCYTE [2]: 90.5%
MEAN CORPUSCULAR HEMOGLOBIN [2]: 23.32 pg
MEAN CORPUSCULAR HEMOGLOBIN CONCENTRATION [2]: 37.42 G/DL
MONOCYTE [2]: 0.17%
NEUTROPHIL [2]: 7.67%
NUCLEATED RED BLOOD CELLS [2]: 0 /100WBC
PLATELET COUNT [2]: 1337.67 x10E3/uL
ALANINE AMINOTRANSFERASE [2]: 48.5 u/L
ALBUMIN [2]: 4.32 G/DL
ALKALINE PHOSPHATASE [2]: 354.33 u/L
BLOOD UREA NITROGEN [2]: 16 mg/dL
CARBON DIOXIDE [2]: 27.33 mmol/L
CHLORIDE [2]: 100.33 MEQ/L
CHOLESTEROL [2]: 68 mg/dL
CREATINE PHOSPHOKINASE [2]: 325.17 u/L
CREATININE [2]: 0.23 mg/dL
GLUCOSE [2]: 172 mg/dL
LACTATE DEHYDROGENASE [2]: 254.83 u/L
LIPASE [2]: 8.33 u/L
PHOSPHORUS [2]: 12.17 mg/dL
POTASSIUM [2]: 6.28 MEQ/L
SODIUM [2]: 143.57 MEQ/L
TOTAL BILIRUBIN [2]: 0.18 mg/dL
TOTAL PROTEIN [2]: 6.12 G/DL
URIC ACID [2]: 1.78 mg/dL
ABSOLUTE BASOPHIL [3]: 0 CELLS/uL
ABSOLUTE EOSINOPHIL [3]: 119.67 CELLS/uL
ABSOLUTE LYMPHOCYTE [3]: 6343 CELLS/uL
ABSOLUTE MONOCYTE [3]: 102.67 CELLS/uL
ABSOLUTE SEGMENTED NEUTROPHIL [3]: 568 CELLS/uL
BASOPHIL [3]: 0%
EOSINOPHIL [3]: 1.67%
ERYTHROCYTE COUNT [3]: 5.21 x10E6/uL
HEMATOCRIT [3]: 33.27%
HEMOGLOBIN [3]: 12.53 G/DL
LEUKOCYTE COUNT [3]: 7.13 x10E3/uL
LYMPHOCYTE [3]: 89.33%
MEAN CORPUSCULAR HEMOGLOBIN [3]: 24.03 pg
MEAN CORPUSCULAR HEMOGLOBIN CONCENTRATION [3]: 37.7 G/DL
MONOCYTE [3]: 1.33%
NEUTROPHIL [3]: 7.67%
NUCLEATED RED BLOOD CELLS [3]: 0 /100WBC
PLATELET COUNT [3]: 1102.33 x10E3/uL
ALANINE AMINOTRANSFERASE [3]: 49.67 u/L
ALBUMIN [3]: 4.23 G/DL
ALKALINE PHOSPHATASE [3]: 362.67 u/L
BLOOD UREA NITROGEN [3]: 15.33 mg/dL
CARBON DIOXIDE [3]: 28.33 mmol/L
CHLORIDE [3]: 102 MEQ/L
CHOLESTEROL [3]: 64.67 mg/dL
CREATINE PHOSPHOKINASE [3]: 198.67 u/L
CREATININE [3]: 0.21 mg/dL
GLUCOSE [3]: 165 mg/dL
LACTATE DEHYDROGENASE [3]: 128.33 u/L
LIPASE [3]: 8 u/L
PHOSPHORUS [3]: 11 mg/dL
POTASSIUM [3]: 5.66 MEQ/L
SODIUM [3]: 144.5 MEQ/L
TOTAL BILIRUBIN [3]: 0.2 mg/dL
TOTAL PROTEIN [3]: 6.03 G/DL
URIC ACID [3]: 0.97 mg/dL
